Source: US12582721B2, “Molybdenum-based feed supplement for bees” (UNIVERSITE DE VERSAILLES—SAINT-QUENTIN-EN-YVELINES, priority 2020, dated 2026)

Test system: Varroa destructor
Assay: 1st test in hives: degree of infestation with Varroa
Assay type: in vivo
Details: for Degree of infestation with Varroa / Degree of infestation with Varroa, change versus batch I: overall dose 2 mg per colony; for Degree of infestation with Varroa: 100 = 1.78 mite/10 g of bees; for Degree of infestation with Varroa, change versus batch I: value in brackets
Description: Biological field tests were performed on families of European domestic bees of the species Apis mellifera […] experimental apiary located in the […] forestry district (Republic of Moldova). Feeding with the complex of the invention took place in spring. The biological tests were monitored up to the month of September. To administer the compounds to the bees, a very small amount of bioactive substance was added to two types of sugary feeding products for bees: candy in the form of a paste (70% sucrose, 30% honey) or syrup (50% sucrose, 50% water). The bees were fed by adding the candy/syrup to the feeder located in the inner upper part of the hive. The volume of syrup was adjusted based on the number of bee frames at the initial time, more precisely 200 g of candy per frame and 100 mL of syrup per frame, that is 2 kg of candy and 1 L of syrup per hive of 10 frames. For the first feeding step, candy in the form of a paste was only given once. […] From the start of the test to the end (after the second harvest), all the bees were monitored for several key morpho-producing parameters that reflect the development level of the colony and the vital aspects of the bees. The parameters studied are: the prolificity of the queen (fertility), the power of the colonies, the production of honey and the production of wax. These parameters were monitored in line with the zootechnical standards concerning the assessment of bee families, breeding and certification of beekeeping parental material approved by government decision No. 306 dated Apr. 28, 2011 of the Republic of Moldova. The assessment consists in counting the number of Varroa on a sample of adult bees. The value from this count is used as an index for monitoring the level of parasitism in the colony. The method uses icing sugar and a “shaker” jar made of transparent glass with a capacity of 1 kg. The cover is a mesh made of galvanized steel of the type placed at the bottom of the hive, with a mesh size of 3 mm. The mesh allows Varroa mites to pass through but retains the honey bees. The method is implemented according to the following steps: 40 to 50 g of honey bees are collected in the jar (approximately 400 bees), 100 g of icing sugar is added and the shaker jar is rolled for 1 minute so as to cover every bee in icing sugar. The icing sugar then makes it possible to separate the Varroa mites from the body of the host bee so that they drop off. Leave to rest for 1 minute: bees have a delousing behavior, which helps the Varroa mites to drop off. The icing sugar is sieved over a sieve which makes it possible to retain the Varroa mites and then count them. The result is given as the number of mites per 10 g of bees (approximately 100 bees) and can be expressed as a %. This rate is indicative of the Varroa burden in the colony. […] A moderate rate is between 2 and 5 and, in this case, treatment of the colonies must be scheduled. Finally, a rate greater than 5, requires emergency treatment of the colony. Our tests give a result of around 2% for worker bees. The molecules tested, their concentration in solution and their annual overall doses are listed below: • 1. […] The concentration of the complex in the syrup: 1.5×10^-7 mol/L. Overall and annual product dose: 2 mg of complex per colony • 2. […] The concentration of the complex in syrup: 3.0×10^-7 mol/L. Overall and annual product dose: 2 mg of complex per colony • 3. […] Overall and annual product dose: 2 mg of complex per colony • 4. LiCH3COO·H2O as a positive control, abbreviated as Li-Ac • The feeding is carried out with 2000 g of candy containing 0.8 mg of positive control product, then 6 to 7 L of syrup containing 0.2 mg/L of positive control product. The concentration of the product in syrup: 2.36×10^-6 mol/L that is 1.67×10^-5 g/L. Overall and annual product dose: 2 mg of product per colony

Structure (SMILES) | Degree of infestation with Varroa | Degree of infestation with Varroa, change versus batch I | Protective effect against the infestation of bees by Varroa destructor (1st test, 2 mg per colony, relative to untreated batch I, Li complex at a lithium concentration almost 4 times lower than Li—Ac)
CC(=O)[O-].[Li+] [Li—Ac, LiCH3COO·H2O, reference compound] | 58.4 % relative to batch I | −41.6% | –
O.O.O.O.O.O.O=C([O-])CN(CCN(CC(=O)[O-])CC(=O)[O-])CC(=O)[O-].[Li+].[Li+].[O]=[Mo+]12[O][Mo+]1(=[O])[O]2 [Li—Mo2O4-EDTA, Li2[Mo2O4 (EDTA)]·6H2O] | 57.3 % relative to batch I | −42.7% | protective capacity comparable to that of the lithium acetate
O.O.O.O.O.O=C([O-])CN(CCN(CC(=O)[O-])CC(=O)[O-])CC(=O)[O-].[Na+].[Na+].[O]=[Mo+]12[O][Mo+]1(=[O])[O]2 [Na—Mo2O4-EDTA, Na2[Mo2O4 (EDTA)]·5H2O] | 86.5 % relative to batch I | −13.5% | –
O=C([O-])CN(CCN(CC(=O)[O-])CC(=O)[O-])CC(=O)[O-].[O]=[Mo+]12[O][Mo+]1(=[O])[O]2.c1ccc([P+](c2ccccc2)(c2ccccc2)c2ccccc2)cc1.c1ccc([P+](c2ccccc2)(c2ccccc2)c2ccccc2)cc1 [PPh4—Mo2O4-EDTA, (PPh4)2[Mo2O4 (EDTA)]·2.5H2O] | 78.7 % relative to batch I | −21.3% | –
